# The supplement of paper PMC10307832
# Compound: C(C(=O)C(=O)O)Br [Bromopyruvate] + C[C@@H](Oc1cc(-c2cnn(C3CCNCC3)c2)cnc1N)c1c(Cl)ccc(F)c1Cl [Crizotinib] (partner 1 µM)
# Assay: relative viability (nuclei count vs DMSO), 5 days (fraction); higher = more cells survive
# Conditions: first compound 1 µM
# Procedure, shortened: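 Lung cancer cell lines were seeded in 1536-well plates and dosed by pin tool the next day, with either a single drug or a fixed anchor-drug dose combined with five library-drug doses (not always all listed) spaced in √10 steps. Five days later, one step fixed the cells and stained their nuclei (final 0.05% Triton X-100, 1% formaldehyde, 1 ug/ml Hoechst), and nuclei were counted on 4× images. Relative viability is the nuclei count in treated wells divided by the count in vehicle wells, and each value is the median of duplicate plates.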
row,Cell Line,relative viability
1,NCI-H838,0.959
2,NCI-H1650,0.898
3,EBC-1,0.235
4,NCI-H1703,0.736
5,NCI-H2009,1.05
6,NCI-H1993,1.25
7,PC-14,0.991
8,LCLC-103H,1.02
9,NCI-H596,0.98
10,NCI-H2228,0.44
11,EMC-BAC-2,0.611
12,NCI-H2087,0.9
13,Calu-6,0.659
14,HCC-366,0.569
15,NCI-H1666,0.993
16,NCI-H647,1.05
17,LK-2,0.292

row,Cell Line,relative viability
1,NCI-H2126,1.02
2,SK-MES-1,0.974
3,H3255,0.929
4,COR-L23,0.564
5,COR-L 105,0.716
6,IA-LM,0.642
7,LOU-NH91,0.769
8,ChaGo-K-1,1.09
9,NCI-H2170,1.33
10,NCI-H3122,0.252
11,HOP-62,0.923
12,HCC-44,0.787
13,A549,0.731
14,LU99A,0.488
15,BEN,0.875
16,NCI-H441,0.884
17,NCI-H1299,0.933

# Same assay, conditions: first compound 3.162 µM
row,Cell Line,relative viability
1,NCI-H838,0.881
2,NCI-H1650,1.24
3,EBC-1,0.218
4,NCI-H1703,0.946
5,NCI-H2009,1.1
6,NCI-H1993,0.931
7,PC-14,0.868
8,LCLC-103H,1.06
9,NCI-H596,1
10,NCI-H2228,0.641
11,EMC-BAC-2,0.723
12,NCI-H2087,0.957
13,Calu-6,0.843
14,HCC-366,0.54
15,NCI-H1666,0.907
16,NCI-H647,1.18
17,LK-2,0.238

row,Cell Line,relative viability
1,NCI-H2126,1.07
2,SK-MES-1,0.952
3,H3255,0.987
4,COR-L23,0.597
5,COR-L 105,1.09
6,IA-LM,0.796
7,LOU-NH91,0.708
8,ChaGo-K-1,1.14
9,NCI-H2170,1.24
10,NCI-H3122,0.263
11,HOP-62,0.876
12,HCC-44,0.724
13,A549,0.806
14,LU99A,0.689
15,BEN,0.935
16,NCI-H441,0.739
17,NCI-H1299,0.994

# Same assay, conditions: first compound 10 µM
row,Cell Line,relative viability
1,NCI-H838,0.825
2,NCI-H1650,0.942
3,EBC-1,0.187
4,NCI-H1703,0.589
5,NCI-H2009,1.03
6,NCI-H1993,0.899
7,PC-14,0.826
8,LCLC-103H,1.05
9,NCI-H596,1.07
10,NCI-H2228,0.492
11,EMC-BAC-2,0.798
12,NCI-H2087,0.661
13,Calu-6,0.938
14,HCC-366,0.947
15,NCI-H1666,0.963
16,NCI-H647,1.25
17,LK-2,0.207

row,Cell Line,relative viability
1,NCI-H2126,1.04
2,SK-MES-1,1.02
3,H3255,0.915
4,COR-L23,0.717
5,COR-L 105,0.739
6,IA-LM,0.634
7,LOU-NH91,0.712
8,ChaGo-K-1,1.17
9,NCI-H2170,1.2
10,NCI-H3122,0.304
11,HCC-44,0.735
12,A549,0.858
13,LU99A,0.591
14,BEN,0.99
15,NCI-H441,0.661
16,NCI-H1299,0.995

# Same assay, conditions: first compound 31.62 µM
row,Cell Line,relative viability
1,NCI-H838,0.871
2,NCI-H1650,0.922
3,EBC-1,0.187
4,NCI-H1703,0.862
5,NCI-H2009,0.921
6,NCI-H1993,0.84
7,PC-14,0.966
8,LCLC-103H,1.14
9,NCI-H596,0.952
10,NCI-H2228,0.404
11,EMC-BAC-2,0.788
12,NCI-H2087,0.78
13,Calu-6,0.79
14,HCC-366,0.548
15,NCI-H1666,1.18
16,NCI-H647,1.16
17,LK-2,0.223

row,Cell Line,relative viability
1,NCI-H2126,0.99
2,SK-MES-1,0.997
3,H3255,0.803
4,COR-L23,0.713
5,COR-L 105,0.583
6,IA-LM,0.789
7,LOU-NH91,0.76
8,ChaGo-K-1,1.1
9,NCI-H2170,1.29
10,NCI-H3122,0.289
11,HOP-62,0.952
12,HCC-44,0.862
13,A549,0.754
14,LU99A,0.554
15,BEN,0.753
16,NCI-H441,0.82
17,NCI-H1299,0.945

# Same assay, conditions: first compound 100 µM
row,Cell Line,relative viability
1,NCI-H838,0.854
2,NCI-H1650,0.56
3,EBC-1,0.196
4,NCI-H1703,0.75
5,NCI-H2009,0.724
6,NCI-H1993,0.867
7,PC-14,0.997
8,LCLC-103H,1.2
9,NCI-H596,1.17
10,NCI-H2228,0.617
11,EMC-BAC-2,0.756
12,NCI-H2087,0.78
13,Calu-6,0.546
14,HCC-366,0.474
15,NCI-H1666,0.857
16,NCI-H647,1.1
17,LK-2,0.257
18,NCI-H2126,0.988
19,SK-MES-1,1.05
20,H3255,0.973
21,COR-L23,0.336
22,COR-L 105,0.439
23,IA-LM,0.522
